System: neurons from primary cortical nerve tissue
Test: Suppression of Rho kinase activation (neurite lengths, keratan sulfate, Y27632)
Type: cell-based, mice
Method: Next, participation of Rho kinase was investigated in order to investigate the action mechanism of keratanase II in the above Experiment 1. The neurons were seeded onto an 8-well chamber to which a test sample was applied by the same manner as in the method of Experiment 1. Twenty-four hours after starting the incubation of the neurons, 15 μM of Y27632 (Rho kinase inhibitor, Sigma) was added to the neurons followed by incubating for 24 hours more. After that, the chamber was fixed with 4% of paraformaldehyde and the neurons were identified by an immunohistochemical means with Neuronal Class IIIβ tubulin (TUJ1) antibody (COVANCE). The neurite lengths were measured of from 80 to 90 neurons per condition, an average value thereof was calculated and shown by a graph. The test sample was the following four types.
(1) that which was applied with 25 μg/mL of poly-L-lysine (Sigma; hereinafter, the same) followed by being applied with 10 μg/mL of laminin (BD Biosciences; hereinafter, the same).
(2) that which was applied with 25 μg/mL of poly-L-lysine followed by being applied with 10 μg/mL of laminin and 20 μg/mL of keratan sulfate (Seikagaku Corporation; hereinafter, the same).
(3) that which was applied with 25 μg/mL of poly-L-lysine followed by being applied with 10 μg/mL of laminin and 40 μg/mL of keratan sulfate. […]

release of inhibiting action for elongation of neurite lengths induced by keratan sulfate (keratan sulfate on poly-L-lysine/laminin, Y27632 15 μM or Ks36 keratanase II 0.01 U/mL without Y27632)	effect on elongation of the neurite lengths (keratan sulfate 20 or 40 μg/mL on poly-L-lysine/laminin)	Compound
released		C[C@@H](N)[C@H]1CC[C@H](C(=O)Nc2ccncc2)CC1 [Y27632]
	induces the inhibition	keratan sulfate

Source: patent US8754036B2, “Method for treating neuropathic pain” (National University Corporation Nagoya University, priority 2007, dated 2014)
